Source: US20240158348A1, “HERBICIDAL CYCLIC AMIDES N-SUBSTITUTED WITH A HALOALKYLSULFONYLANILIDE GROUP” (FMC Corporation, priority 2021, published 2024)

What was measured:
Type in all cases: in vivo
[1] = system: blackgrass (Alopecurus myosuroides); assay: Test C preemergence, blackgrass; conditions: 0 is no effect, 100 is complete control
Text: (§1) Seeds of plant species selected from blackgrass (Alopecurus myosuroides), corn (Zea mays), foxtail, giant (giant foxtail, Setaria faberi), goosegrass (Eleusine indica), kochia (Bassia scoparia), oat, wild (wild oat, Avena fatua), pigweed, palmer (palmer amaranth, Amaranthus palmeri), ragweed (common ragweed, Ambrosia artemisiifolia), ryegrass, Italian (Italian ryegrass, Lolium multiflorum), soybean (Glycine max) and wheat (Triticum aestivum) were planted into a blend of loam soil and sand and treated preemergence with a directed soil spray using test chemicals formulated in a non-phytotoxic solvent mixture which included a surfactant.
(§2) At the same time, plants selected from these crop and weed species and also galium (catchweed bedstraw, Galium aparine) and horseweed (Erigeron canadensis) were planted in pots containing the same blend of loam soil and sand and treated with postemergence applications of test chemicals formulated in the same manner. Plants ranged in height from 2 to 10 cm and were in the one- to two-leaf stage for the postemergence treatment. Treated plants and untreated controls were maintained in a greenhouse for 10 or 12 days, after which time all treated plants were compared to untreated controls and visually evaluated for injury. Plant response ratings, summarized in Table A, are based on a 0 to 100 scale where 0 is no effect and 100 is complete control. A dash (-) response means no test result.

corn (Zea mays) [2] = assay: Test C preemergence, corn; conditions: 0 is no effect, 100 is complete control
Text: as §1, §2

[3] = system: foxtail, giant (giant foxtail, Setaria faberi); assay: Test C preemergence, giant foxtail; conditions: 0 is no effect, 100 is complete control
Text: as §1, §2

[4] = system: goosegrass (Eleusine indica); assay: Test C preemergence, goosegrass; conditions: 0 is no effect, 100 is complete control
Text: as §1, §2

kochia (Bassia scoparia) [5] = assay: Test C preemergence, kochia; conditions: 0 is no effect, 100 is complete control
Text: as §1, §2

[6] = system: oat, wild (wild oat, Avena fatua); assay: Test C preemergence, wild oat; conditions: 0 is no effect, 100 is complete control
Text: as §1, §2

[7] = system: pigweed, palmer (palmer amaranth, Amaranthus palmeri); assay: Test C preemergence, palmer amaranth; conditions: 0 is no effect, 100 is complete control
Text: as §1, §2

[8] = system: ragweed (common ragweed, Ambrosia artemisiifolia); assay: Test C preemergence, ragweed; conditions: 0 is no effect, 100 is complete control
Text: as §1, §2

[9] = system: ryegrass, Italian (Italian ryegrass, Lolium multiflorum); assay: Test C preemergence, Italian ryegrass; conditions: 0 is no effect, 100 is complete control
Text: as §1, §2

soybean (Glycine max) [10] = assay: Test C preemergence, soybean; conditions: 0 is no effect, 100 is complete control
Text: as §1, §2

[11] = system: wheat (Triticum aestivum); assay: Test C preemergence, wheat; conditions: 0 is no effect, 100 is complete control
Text: as §1, §2

[12] = system: blackgrass (Alopecurus myosuroides); assay: Test C postemergence, blackgrass; conditions: 31 g ai/ha Postemergence; visual injury, 0 to 100 scale (0 no effect, 100 complete control)
Text: as §1, §2

corn (Zea mays) [13] = assay: Test C postemergence, corn
Text: as §1, §2

[14] = system: foxtail, giant (giant foxtail, Setaria faberi); assay: Test C postemergence, giant foxtail
Text: as §1, §2

[15] = system: goosegrass (Eleusine indica); assay: Test C postemergence, goosegrass
Text: as §1, §2

kochia (Bassia scoparia) [16] = assay: Test C postemergence, kochia
Text: as §1, §2

[17] = system: oat, wild (wild oat, Avena fatua); assay: Test C postemergence, wild oat
Text: as §1, §2

[18] = system: pigweed, palmer (palmer amaranth, Amaranthus palmeri); assay: Test C postemergence, palmer amaranth
Text: as §1, §2

[19] = system: ragweed (common ragweed, Ambrosia artemisiifolia); assay: Test C postemergence, ragweed
Text: as §1, §2

[20] = system: ryegrass, Italian (Italian ryegrass, Lolium multiflorum); assay: Test C postemergence, Italian ryegrass
Text: as §1, §2

soybean (Glycine max) [21] = assay: Test C postemergence, soybean
Text: as §1, §2

[22] = system: wheat (Triticum aestivum); assay: Test C postemergence, wheat
Text: as §1, §2

[23] = system: galium (catchweed bedstraw, Galium aparine); assay: Test C postemergence, galium
Text: as §1, §2

[24] = system: horseweed (Erigeron canadensis); assay: Test C postemergence, horseweed
Text: as §1, §2

[25] = system: barnyardgrass (Echinochloa crusgalli); assay: Test D flooded paddy test, barnyardgrass; set-up: key: 0 = no effect, 100 = complete control; conditions: 250 g ai/ha, Flood; applied to paddy water at 2-leaf stage; visual rating after 13 days; scale 0 (no effect) to 100 (complete control)
Description: (§3) Plant species in the flooded paddy test selected from barnyardgrass (Echinochloa crusgalli), ducksalad (Heteranthera limosa), rice (Oryza sativa), and sedge, umbrella (small-flower umbrella sedge, Cyperus difformis) were grown to the 2-leaf stage for testing. At time of treatment, test pots were flooded to 3 cm above the soil surface, treated by application of test compounds directly to the paddy water, and then maintained at that water depth for the duration of the test. Treated plants and controls were maintained in a greenhouse for 13 days, after which time all species were compared to controls and visually evaluated. Plant response ratings, summarized in Table B, are based on a scale of 0 to 100 where 0 is no effect and 100 is complete control. A dash (-) response means no test result.

[26] = system: ducksalad (Heteranthera limosa); assay: Test D flooded paddy test, ducksalad; set-up: key: 0 = no effect, 100 = complete control; conditions: 250 g ai/ha, Flood; applied to paddy water at 2-leaf stage; visual rating after 13 days; scale 0 (no effect) to 100 (complete control)
Description: as §3

rice (Oryza sativa) = assay: Test D flooded paddy test, rice; set-up: key: 0 = no effect, 100 = complete control; conditions: 250 g ai/ha, Flood; applied to paddy water at 2-leaf stage; visual rating after 13 days; scale 0 (no effect) to 100 (complete control)
Description: as §3

[27] = system: sedge, umbrella (small-flower umbrella sedge, Cyperus difformis); assay: Test D flooded paddy test, umbrella sedge; set-up: key: 0 = no effect, 100 = complete control; conditions: 250 g ai/ha, Flood; applied to paddy water at 2-leaf stage; visual rating after 13 days; scale 0 (no effect) to 100 (complete control)
Description: as §3

[28] = system: blackgrass (Alopecurus myosuroides); assay: Test C postemergence, blackgrass; conditions: 125 g ai/ha Postemergence; 0 is no effect, 100 is complete control
[29] = 31 g ai/ha Postemergence, visual injury, 0 to 100 scale (0 no effect, 100 complete control)
[30] = 125 g ai/ha Postemergence, 0 is no effect, 100 is complete control

Cc1cc(C)c(N(C(=O)OC(C)C)S(=O)(=O)C(F)(F)F)cc1N1CCC(OC2CC2)C1=O (stereo not shown) [Compound 18]
Plant response rating (0 to 100 scale), Blackgrass ([1]; 31 g ai/ha Preemergence): 0 | Plant response rating (0 to 100 scale), Blackgrass ([1]; 125 g ai/ha Preemergence): 0 | Plant response rating (0 to 100 scale), Corn (corn (Zea mays) [2]; 31 g ai/ha Preemergence): 0 | Plant response rating (0 to 100 scale), Corn (corn (Zea mays) [2]; 125 g ai/ha Preemergence): 0 | Plant response rating (0 to 100 scale), Foxtail, Giant ([3]; 31 g ai/ha Preemergence): 0 | Plant response rating (0 to 100 scale), Foxtail, Giant ([3]; 125 g ai/ha Preemergence): 0 | Plant response rating (0 to 100 scale), Goosegrass ([4]; 31 g ai/ha Preemergence): 0 | Plant response rating (0 to 100 scale), Goosegrass ([4]; 125 g ai/ha Preemergence): 0 | Plant response rating (0 to 100 scale), Kochia (kochia (Bassia scoparia) [5]; 31 g ai/ha Preemergence): 0 | Plant response rating (0 to 100 scale), Kochia (kochia (Bassia scoparia) [5]; 125 g ai/ha Preemergence): 60 | Plant response rating (0 to 100 scale), Oat, Wild ([6]; 31 g ai/ha Preemergence): 0 | Plant response rating (0 to 100 scale), Oat, Wild ([6]; 125 g ai/ha Preemergence): 0 | Plant response rating (0 to 100 scale), Pigweed, Palmer ([7]; 31 g ai/ha Preemergence): 0 | Plant response rating (0 to 100 scale), Pigweed, Palmer ([7]; 125 g ai/ha Preemergence): 20 | Plant response rating (0 to 100 scale), Ragweed ([8]; 31 g ai/ha Preemergence): 0 | Plant response rating (0 to 100 scale), Ragweed ([8]; 125 g ai/ha Preemergence): 0 | Plant response rating (0 to 100 scale), Ryegrass, Italian ([9]; 31 g ai/ha Preemergence): 0 | Plant response rating (0 to 100 scale), Ryegrass, Italian ([9]; 125 g ai/ha Preemergence): 0 | Plant response rating (0 to 100 scale), Soybean (soybean (Glycine max) [10]; 31 g ai/ha Preemergence): 0 | Plant response rating (0 to 100 scale), Soybean (soybean (Glycine max) [10]; 125 g ai/ha Preemergence): 30 | Plant response rating (0 to 100 scale), Wheat ([11]; 31 g ai/ha Preemergence): 0 | Plant response rating (0 to 100 scale), Wheat ([11]; 125 g ai/ha Preemergence): 0 | Blackgrass plant response rating [12]: 0 | Corn plant response rating (corn (Zea mays) [13]; [29]): 0 | Plant response rating (0 to 100 scale), Corn (corn (Zea mays) [13]; [30]): 0 | Foxtail, Giant plant response rating [14, 29]: 0 | Plant response rating (0 to 100 scale), Foxtail, Giant [14, 30]: 0 | Goosegrass plant response rating [15, 29]: 0 | Plant response rating (0 to 100 scale), Goosegrass [15, 30]: 0 | Kochia plant response rating (kochia (Bassia scoparia) [16]; [29]): 20 | Plant response rating (0 to 100 scale), Kochia (kochia (Bassia scoparia) [16]; [30]): 70 | Oat, Wild plant response rating [17, 29]: 0 | Plant response rating (0 to 100 scale), Oat, Wild [17, 30]: 0 | Pigweed, Palmer plant response rating [18, 29]: 0 | Plant response rating (0 to 100 scale), Pigweed, Palmer [18, 30]: 20 | Ragweed plant response rating [19, 29]: 0 | Plant response rating (0 to 100 scale), Ragweed [19, 30]: 50 | Ryegrass, Italian plant response rating [20, 29]: 0 | Plant response rating (0 to 100 scale), Ryegrass, Italian [20, 30]: 0 | Soybean plant response rating (soybean (Glycine max) [21]; [29]): 50 | Plant response rating (0 to 100 scale), Soybean (soybean (Glycine max) [21]; [30]): 80 | Wheat plant response rating [22, 29]: 0 | Plant response rating (0 to 100 scale), Wheat [22, 30]: 0 | Galium plant response rating [23, 29]: 10 | Plant response rating (0 to 100 scale), Galium [23, 30]: 70 | Horseweed plant response rating [24, 29]: 0 | Plant response rating (0 to 100 scale), Horseweed [24, 30]: 0 | Plant response rating, Barnyardgrass [25]: 0 | Plant response rating, Ducksalad [26]: 0 | Plant response rating, Rice (rice (Oryza sativa)): 0 | Plant response rating, Sedge, Umbrella [27]: 0 | Plant response rating (0 to 100 scale), Blackgrass [28]: 0
